According to patent US20160115225A1, “Methods of Reducing Methylglyoxal (MGO) Modification of Recombinant Proteins in Cell Culture” (AbbVie Inc., priority 2014, published 2016):

Key:
Format in all cases: cell-based
[1] = tested on: adalimumab producing cell line 1; experiment: Glucose consumption of the culture, cell line 1
Protocol: (§1) For the bioreactor (3 L Applikon) experiments (Examples 1, 2 and 3), 3 L, bioreactors (1.5 L working volume) were initiated at 35° C. (cell line 1) and 36° C. (cell line 2), 30% DO, 200 rpm, pH of 7.1. In some of the conditions, pH was ramped down to 6.8 in three days and kept at pH 6.8 thereafter. The inclusion of pH ramp for a particular condition is indicated by the final pH in the experimental design. If the final pH is 7.1, then it indicates no pH ramp was performed, whereas if the final pH is 6.8, a pH ramp was performed on day 3 from pH 7.1 to pH 6.8. In some of the conditions, a temperature shift was performed. When temperature shift was performed, the temperature was lowered to 33° C. Again, the conditions where such a temperature shift was performed can be identified from the final temperature in the experimental design. Cultures were run in extended batch mode with the addition of a desired amount of 40% glucose stock solution was fed based on glucose measurements.
To assess if this reduction in MGO modification in the test conditions also corresponded to lower glucose consumption, the specific glucose consumption rate was calculated across the two phases of culture: average over day 0-day 5 and average over day 5-10 (period post temperature shift) (FIG. 4b). The specific glucose consumption rate in the conditions with 2DDG supplementation was lower in both phases. […] In the period post the temperature shift, up to 50% reduction in specific glucose consumption rate relative to that in the control was observed. Thus, a clear correlation has been observed between reduced glucose consumption and the extent of MGO modification of the peptides.
To further assess the applicability of this strategy, the cumulative glucose consumption levels were also evaluated for these conditions in this study (FIG. 6b). This was calculated by using daily glucose concentration measurements via the offline analyzer and by accounting for glucose feeds when added. […]

[2] = tested on: adalimumab producing cell line 2; experiment: Glucose consumption of the culture, cell line 2; conditions: Example 4
Protocol: as §1
The objective of this experiment was to further evaluate the control of MGO synthesis/MGO protein modification through reduced glucose consumption in a different cell line, Cell line 2. […] As described in Example 3, extracellular MGO quantification was performed for day 7, 8 and 9 for the samples below and percentage of acidic species were quantified using WCX-10 analysis post protein A of cell culture harvests. […]

[3] = tested on: adalimumab producing cell line 1; experiment: Cell growth, viability and titer, bioreactor culture, cell line 1; conditions: Example 2; 2DDG 0.25 g/l; versus control
Protocol: as §1, with “measurements. […]” for “measurements.”
The cells were grown to maximum viable cell densities (VCD) in the range of 10-14×10^6 cells/ml for the different conditions tested. […] Samples were subsequently analyzed using Poros A for titer and WCX-10 post protein A purification. Based on the WCX-10 chromatograms, the percentages of total peak(s) area corresponding to the acidic species were quantified. […]

O=CC[C@@H](O)[C@H](O)[C@H](O)CO [Test 2DDG, 2-Deoxy-D-Glucose]
specific glucose consumption rate ([1]; Example 2, 2DDG 0.25 g/l, day 0-day 5 and day 5-10, versus control): lower
glucose consumption ([1]; Example 3, 2DDG supplementation 0.25 g/l): significant reduction
glucose consumption rate ([2]; 0.05 g/l 2DDG, compared to control): not significantly lower
glucose consumption ([2]; 0.15 g/l 2DDG): reduction
cell growth and viability profile [3]: slight increase
